Results taken from the NIST ThermoML archive (doi:10.1016/j.tca.2008.06.010).
± gives the expanded uncertainty stated by the source.

Assay: molar heat capacity at constant pressure
Conditions: 101.33 kPa, Crystal, Relaxation time

[Nb+5].[Nb+5].[O-2].[O-2].[O-2].[O-2].[O-2].[O-2].[O-2].[Sr+2].[Sr+2] [niobium strontium oxide (Nb2Sr2O7)]
Conditions | molar heat capacity at constant pressure [J/K/mol]
2 K | 0.006 ± 0.001
2.1 K | 0.005 ± 0.001
2.2 K | 0.006 ± 0.001
2.4 K | 0.007 ± 0.001
2.5 K | 0.008 ± 0.001
2.7 K | 0.009 ± 0.001
2.9 K | 0.01 ± 0.001
3.1 K | 0.012 ± 0.001
3.2 K | 0.015 ± 0.001
3.5 K | 0.017 ± 0.001
3.7 K | 0.02 ± 0.001
3.9 K | 0.024 ± 0.001
4.2 K | 0.03 ± 0.001
4.4 K | 0.035 ± 0.001
4.7 K | 0.043 ± 0.001
5 K | 0.053 ± 0.001
5.4 K | 0.064 ± 0.002
5.7 K | 0.079 ± 0.002
6.1 K | 0.097 ± 0.002
6.5 K | 0.12 ± 0.01
6.9 K | 0.15 ± 0.01
7.4 K | 0.19 ± 0.01
7.9 K | 0.23 ± 0.01
8.4 K | 0.28 ± 0.01
8.9 K | 0.35 ± 0.01
9.5 K | 0.43 ± 0.01
10.1 K | 0.53 ± 0.01
10.8 K | 0.65 ± 0.01
11.5 K | 0.8 ± 0.02
12.2 K | 0.99 ± 0.02
13 K | 1.21 ± 0.03
13.9 K | 1.48 ± 0.03
14.8 K | 1.82 ± 0.04
15.7 K | 2.2 ± 0.05
16.7 K | 2.69 ± 0.06
17.8 K | 3.28 ± 0.07
19 K | 3.97 ± 0.08
20.2 K | 4.78 ± 0.1
21.5 K | 5.72 ± 0.12
22.9 K | 6.83 ± 0.14
24.3 K | 8.09 ± 0.16
25.9 K | 9.56 ± 0.19
27.6 K | 11.22 ± 0.23
29.3 K | 13.09 ± 0.26
31.2 K | 15.16 ± 0.3
33.3 K | 17.47 ± 0.35
35.4 K | 20.05 ± 0.4
37.7 K | 22.84 ± 0.46
40.2 K | 25.86 ± 0.52
42.7 K | 29.26 ± 0.59
45.5 K | 32.91 ± 0.66
48.4 K | 36.66 ± 0.73
51.6 K | 40.57 ± 0.81
54.9 K | 44.95 ± 0.9
58.4 K | 49.55 ± 0.99
62.2 K | 54.39 ± 1.1
66.2 K | 59.43 ± 1.2
70.4 K | 64.72 ± 1.3
75 K | 70.3 ± 1.4
79.8 K | 76.11 ± 1.5
84.9 K | 82.05 ± 1.6
90.4 K | 88.37 ± 1.8
96.2 K | 95.08 ± 1.9
102.4 K | 101.57 ± 2
115.9 K | 115.3 ± 2.3
123.4 K | 122.51 ± 2.5
131.3 K | 129.76 ± 2.6
